Results: patent publication US12630517B2, “Process for preparing large size isoxazoline particles” (Intervet Inc., priority 2017, dated 2026)

What was measured:
Assay type in all cases: physicochemical
[1] = Volume weighted particle size distribution by laser diffraction (Sympatec Helos); conditions: for x50/d50 particle size dimension at end of recycle loop: in-process slurry at 54° C., after the recycle loop, before final cooling
Source text: As used herein, particle size data reported are volume weighted as measured by conventional particle techniques well known to those skilled in the art, such as static light scattering (also known as laser diffraction), image analysis or sieving. More discussion of particle size measurement is provided below.
The volume weighted particle size can be measured by sieving, microscopy or laser diffraction (Malvern or Sympatec) The volume weighted particle size measurement can be performed with a Malvern Mastersizer 2000 with the Hydro 2000G measuring cell, or with a Horiba LA-910 laser scattering particle size distribution analyzer. The volume weighted particle size can be measured by a Sympatec Helos instrument.
(§1) The volume weighted particle size of the fluralaner crystals was measured by laser diffraction (Sympatec Helos) to determine the particle size distribution. The mechanical resiliency was also determined during a pressure titration experiment. […] In this case, this material is the product of the previous commercial process using an unseeded, distillative crystallization process from an ethyl acetate, toluene solvent system. Of note is the lower particle size and general wider distribution of sizes of the particles.

[2] = Pressure titration for mechanical resiliency (Sympatec HELOS), 1 to 3 bar dispersion pressure; conditions: for reduction in x50/d50 from the pressure titration from 1 bar to 3 bar: dried particles of the example (FIG. 10, FIG. 15)
Source text: Mechanical resiliency is the resistance of crystals or particles to break into smaller crystals or particles when exposed to pressure or stress from other sources. Mechanical resiliency can be measured by a pressure titration using the Sympatec HELOS. This instrument can simultaneously measure the particle size distribution. In this experiment, pressure is applied to the crystals to disperse or separate them one from another. The change in the particle size distribution measurement of d50 is monitored as the pressure on the crystals is increased from 1 bar to 3 bars. Preferably, the isoxazoline compound particles of the subject invention will not decrease their particle size distribution measurement of d50 by more than 30-40% when the dispersion pressure is increased from 1 to 3 bar.
as §1
In this experiment, the particle size distribution was monitored as the particles are exposed to increasing pressure from 1 bar to 3 bar. […] Moreover, the particle size distribution curve broadens and shifts towards smaller particle sizes. This is evidence that these particles are being broken under the increased pressure and is an indication that the particles were very thin.

[3] = Scanning electron microscopy of particles
Source text: Scanning electron microscopy (SEM) is an analytical instrument that uses a focused beam of high-energy electrons to generate a variety of signals at the surface of solid specimens. The signals reveal information about the sample including external morphology (texture), chemical composition, and crystalline structure and orientation of materials making up the sample. FIG. 8 is a scanning electron microscopy image of fluralaner particles that were not produced the inventive process. Of note is that these crystals are rather thin. FIG. 9 is a scanning electron microscopy image of fluralaner particles that were produce by the inventive process. In contrast to the particles shown in FIG. 8, these particles are large (around 100 μm) and thick (around 10-20 μm).

[4] = Particle size by wet method, Microtrac static light scattering; conditions: FIG. 13
Description: FIG. 13—Particle size distribution of the material made from Example 4. […] The particle size measurement for this sample was conducted with a wet method using a Microtrac static light scattering system.

[5] = FIG. 9, particles produced by the inventive process

Cc1cc(C2=NOC(c3cc(Cl)cc(Cl)c3)(C(F)(F)F)C2)ccc1C(=O)NCC(=O)NCC(F)(F)F (stereo not drawn) [Example 5]
average d50 of resulting material ([1]; FIG. 15, crystallised from 5:3 toluene:ethyl acetate): 99 μm
x50/d50 particle size dimension at end of recycle loop [1]: approximately 50 μm
reduction in x50/d50 from the pressure titration from 1 bar to 3 bar [2]: approximately 20%

Cc1cc(C2=NOC(c3cc(Cl)cc(Cl)c3)(C(F)(F)F)C2)ccc1C(=O)NCC(=O)NCC(F)(F)F (stereo not drawn) [fluralaner, 4-[5-(3,5-Dichlorophenyl)-5-trifluoromethyl-4,5-dihydroisoxazol-3-yl]-2-methyl-N-[(2,2,2-trifluoro-ethylcarbamoyl)-methyl]-benzamide]
particle size (x50) at 2 bar dispersing pressure ([2]; FIG. 5, crystals not produced by the inventive process, 2 bar): 80 μm
particle size (d50) at 1 bar ([2]; FIG. 6, crystals produced by the inventive process, 1 bar): 100 μm
particle size (d50) at 3 bar ([2]; FIG. 6, crystals produced by the inventive process, 3 bar): 73 μm
loss of d50 in pressure titration ([2]; FIG. 7, additional batch produced by the inventive process): around 35%
d50 after pressure titration ([2]; FIG. 7, additional batch produced by the inventive process, after pressure increase): around 67 μm
original d50 ([2]; FIG. 7, additional batch produced by the inventive process, before pressure increase): around 103 μm
d50 reduction in pressure titration test ([2]; FIG. 10, crystals produced by the inventive process, % of the original value): around 25%
particle thickness by SEM ([3]; FIG. 8, particles not produced by the inventive process): rather thin
particle size by SEM [3, 5]: around 100 μm
particle thickness by SEM [3, 5]: 10-20 μm

Cc1cc(C2=NOC(c3cc(Cl)cc(Cl)c3)(C(F)(F)F)C2)ccc1C(=O)NCC(=O)NCC(F)(F)F (stereo not drawn) [Example 3]
x50 of resulting material ([1]; FIG. 10, dried particles): 108
x50/d50 particle size dimension at end of recycle loop [1]: approximately 45 μm
reduction in x50/d50 from the pressure titration from 1 bar to 3 bar [2]: approximately 24%

Cc1cc(C2=NOC(c3cc(Cl)cc(Cl)c3)(C(F)(F)F)C2)ccc1C(=O)NCC(=O)NCC(F)(F)F (stereo not drawn) [Example 4]
x50/d50 particle size dimension at end of recycle loop [1]: approximately 40 μm
d10 [4]: 47.3 μm
d50 [4]: 103 μm
d90 [4]: 158.8 μm

Cc1cc(C2=NOC(c3cc(Cl)cc(Cl)c3)(C(F)(F)F)C2)ccc1C(=O)NCC(=O)NCC(F)(F)F (stereo not drawn) [Example 1]
x50/d50 particle size dimension at end of recycle loop [1]: approximately 40 μm
